Assay results taken from the supplement of paper PMC10307832.

Assays:
Assay in all cases: relative viability (nuclei count vs DMSO), 5 days (fraction); higher = more cells survive
Alisertib + OSI-027 = compound: COc1cc(Nc2ncc3c(n2)-c2ccc(Cl)cc2C(c2c(F)cccc2OC)=NC3)ccc1C(=O)O [Alisertib] + COc1cccc2cc(-c3nc([C@H]4CC[C@H](C(=O)O)CC4)n4ncnc(N)c34)[nH]c12 [OSI-027] (partner 0.5 µM)
How it was run: (§1)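 Lung cancer cell lines were pin-tool dosed in 1536-well plates on the day after seeding, with either a lone drug or a fixed anchor-drug dose plus five library-drug doses (not always all listed) in √10 steps. Nuclei were counted on 4× images after 5 days. Relative viability is the ratio of treated-well to vehicle-well nuclei counts, with each value a median of duplicate plates.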

Alisertib + Lapatinib = compound: COc1cc(Nc2ncc3c(n2)-c2ccc(Cl)cc2C(c2c(F)cccc2OC)=NC3)ccc1C(=O)O [Alisertib] + CS(=O)(=O)CCNCc1ccc(-c2ccc3ncnc(Nc4ccc(OCc5cccc(F)c5)c(Cl)c4)c3c2)o1 [Lapatinib] (partner 2 µM)
How it was run: as §1

Alisertib + Linsitinib = compound: COc1cc(Nc2ncc3c(n2)-c2ccc(Cl)cc2C(c2c(F)cccc2OC)=NC3)ccc1C(=O)O [Alisertib] + C[C@]1(O)C[C@@H](c2nc(-c3ccc4ccc(-c5ccccc5)nc4c3)c3c(N)nccn32)C1 [Linsitinib] (partner 1 µM)
How it was run: as §1

Alisertib + Alpelisib = compound: COc1cc(Nc2ncc3c(n2)-c2ccc(Cl)cc2C(c2c(F)cccc2OC)=NC3)ccc1C(=O)O [Alisertib] + Cc1nc(NC(=O)N2CCC[C@H]2C(N)=O)sc1-c1ccnc(C(C)(C)C(F)(F)F)c1 [Alpelisib] (partner 2 µM)
How it was run: as §1

Cell Line	relative viability (Alisertib + OSI-027; first compound 0.005 µM)	relative viability (Alisertib + OSI-027; first compound 0.01581 µM)	relative viability (Alisertib + OSI-027; first compound 0.05 µM)	relative viability (Alisertib + OSI-027; first compound 0.1581 µM)	relative viability (Alisertib + OSI-027; first compound 0.5 µM)	relative viability (Alisertib + Lapatinib; first compound 0.005 µM)	relative viability (Alisertib + Lapatinib; first compound 0.01581 µM)	relative viability (Alisertib + Lapatinib; first compound 0.05 µM)	relative viability (Alisertib + Lapatinib; first compound 0.1581 µM)	relative viability (Alisertib + Lapatinib; first compound 0.5 µM)	relative viability (Alisertib + Linsitinib; first compound 0.005 µM)	relative viability (Alisertib + Linsitinib; first compound 0.01581 µM)	relative viability (Alisertib + Linsitinib; first compound 0.05 µM)	relative viability (Alisertib + Linsitinib; first compound 0.1581 µM)	relative viability (Alisertib + Linsitinib; first compound 0.5 µM)	relative viability (Alisertib + Alpelisib; first compound 0.005 µM)	relative viability (Alisertib + Alpelisib; first compound 0.01581 µM)	relative viability (Alisertib + Alpelisib; first compound 0.05 µM)	relative viability (Alisertib + Alpelisib; first compound 0.1581 µM)	relative viability (Alisertib + Alpelisib; first compound 0.5 µM)
NCI-H2347	0.373	0.346	0.373	0.377	0.282	0.815	0.911	0.877	0.738	0.531	0.967	0.954	0.812	0.729	0.478	0.903	0.877	0.857	0.637	0.436
NCI-H2405	0.63	0.666	0.592	0.321	0.231	1.03	0.873	0.932	0.295	0.272	0.922	0.814	0.818	0.384	0.266	0.817	0.707	0.699	0.42	0.248
NCI-H3122	0.86	0.754	0.599	0.336	0.149	1.01	0.999	0.899	0.433	0.307	1.02	0.905	0.571	0.467	0.245	0.741	0.747	0.472	0.295	0.211
PC-3 [JPC-3]	0.784	0.764	0.703	0.407	0.306	0.453	0.441	0.441	0.374	0.329	0.967	0.908	0.864	0.559	0.447	0.952	0.98	0.751	0.598	0.369
PC-14	0.659	0.8	0.393	0.0786	0.049	0.402	0.31	0.329	0.184	0.099	0.91	0.848	0.774	0.222	0.117	0.901	0.84	0.686	0.277	0.106
RERF-LC-KJ	0.539	0.468	0.354	0.181	0.191	0.844	0.713	0.673	0.318	0.201	0.92	0.789	0.581	0.207	0.227	0.819	0.823	0.622	0.283	0.196
SK-LU-1	0.369	0.233	0.182	0.18	0.163	0.79	0.569	0.296	0.265	0.237	1.07	0.924	0.361	0.324	0.24	0.929	0.458	0.286	0.302	0.247
SK-MES-1	0.563	0.572	0.276	0.21	0.117	0.468	0.508	0.411	0.263	0.219	0.953	0.963	0.725	0.279	0.16	0.681	0.717	0.341	0.172	0.139
SW 1573	0.556	0.5	0.284	0.148	0.102	1.15	0.939	0.552	0.345	0.203	0.856	0.824	0.649	0.176	0.143	0.768	0.798	0.455	0.272	0.171
UMC-11	0.328	0.219	0.165	0.175	0.189	0.438	0.29	0.162	0.163	0.158	0.755	0.495	0.168	0.148	0.158	0.736	0.194	0.137	0.135	0.103
